Measurements: US20240408088A1, “PYRAZOLE DERIVATIVE, AND PREPARATION METHOD THEREFOR AND USE THEREOF IN MEDICINE” (Abbisko Therapeutics Co., Ltd., priority 2021, published 2024)

Tests used:
[1] = system: HCT 116 MTAP knockout cells; assay: Human colon cancer HCT116 cell proliferation inhibition test (MTAP knockout cells, CellTiter-Glo, 6 days); type: cell-based; details: Homo sapiens, HCT-116, 144 h
Experimental: (§1) • 1. HCT 116 MTAP knockout and MTAP wild-type cells were plated in 96-well flat bottom 5 plates, and cultured overnight with McCoy's 5A medium containing […]+1% penicillin-streptomycin at 37° C. and 5% CO2. • 2. On the next day, the compound was dissolved with DMSO, diluted with DMSO and medium successively and transferred to the cell plate. The final concentration of the compound was 10 μM, the compound was diluted 4 times, with 9 concentration gradients, and DMSO control was added. • 3. Cells that have not been treated with the compound were removed. CellTiter-Glo Luminescent Cell Viability Assay (Promega) was used to detect cell viability, the operation was performed with reference to the package insert of the kit, and then the cell plate was placed on EnVision Multilabel Reader to detect the cold light signal. • 4. Meanwhile, the cell plate treated with the compound was cultured at 37° C. and 5% CO2 for 6 consecutive days. • 5. Then, CellTiter-Glo was also used to detect cell viability. • 6. Finally, the four-parameter dose-response curve module of GraphPad Prism v 9.2.0 software was used to plot the dose-response curve and calculate the IC50 for proliferation inhibition (unit: nM).

[2] = system: HCT 116 MTAP wild-type cells; assay: Human colon cancer HCT116 cell proliferation inhibition test (MTAP wild-type cells, CellTiter-Glo, 6 days); type: cell-based; details: HCT-116, 144 h
Experimental: as §1

[3] = Liver microsomal stability experiment; type: in vitro ADME; details: pH 7.4; human liver microsomes, NADPH, 37° C., 0-45 min; read-out: Human Liver Microsome Stability Half-Life T1/2
Experimental: Buffer solution A: 1.0 L of 0.1 M potassium dihydrogen phosphate buffer solution (containing 1.0 mM EDTA);
Buffer solution B: 1.0 L of 0.1 M dipotassium phosphate buffer solution (containing 1.0 mM EDTA);
Buffer solution C: Buffer solution A was added to 700 mL of buffer solution B. The addition was stopped when pH reached 7.4.
The selected compounds of the examples and reference standards were dissolved in DMSO to prepare a stock solution of 10 mM.
• 500 μM solution: 10 μL of 10 mM stock solution was added to 190 μL of ACN; • 1.5 μM dosing solution (dissolved in liver microsome solution, human liver microsomes were purchased from Xenotech): 18.75 μL of 20 mg/mL liver microsomes was added to 479.75 μL of buffer solution C, then 1.5 μL of 500 μM solution was added and mixed well with gentle shaking.
NADPH was weighted, then an appropriate amount of buffer solution C was added to prepare a 6 mM of NADPH solution.
• 1. 30 μL of 1.5 μM dosing solution was added to the wells set to different time points (0 min, 5 min, 15 min, 30 min and 45 min) on a 96-well plate. 2 replicates were made. • 2. Preparation of the 0-min sample: 135 μL of ACN (containing internal standard) was first added to the 0-min well, and 15 μL of 6 mM NADPH solution was added. • 3. A 96-well plate containing 1.5 μM of dosing solution and NADPH solution were pre-warmed in a 37° C. water bath for 5 minutes. • 4. Pre-warmed 15 μL of 6 mM NADPH solution was added to the wells set to 5 min, 15 min, 30 min and 45 min, the reaction was started and the timing was started. • 5. […] The solution was vortexed for 10 minutes, and the sample was centrifuged on a centrifuge at 5594×g for 15 minutes. • 6. 50 μL of supernatant was taken from the centrifuged sample, transferred to a 96-well sample plate that has been added with 50 μL of water, mixed, and finally sent to LC-MS/MS for analysis. The half-life was calculated based on the test results.

[4] = Pharmacokinetic assay in mice, single oral administration; type: in vivo; details: male, mouse, ICR mice, 10 mg/kg, plasma
Experimental: The purpose of this trial is to study the pharmacokinetic behavior of some compounds of the present invention, and the administration method is: Single oral administration (PO) to ICR mice:
ICR mice male N=3 original source: Shanghai Sippr-Bk Lab Animal Co., Ltd.
The compounds were weighed and dissolved in 20% PG+10% Solutol HS15+70% pH 3 citrate buffer, respectively, shaken well and sonicated to prepare colorless clear solutions or suspensions. Nine mice were administered orally at a dose of 10 mg/kg after an overnight fast.
About 90 μL of blood was collected via the submandibular vein per time point, heparin sodium anticoagulant was added, the sample was placed on ice after collection, and plasma was centrifuged within 1 hour (centrifugation conditions: 8,000 rpm, 6 minutes, 2-8° C.). The blood collection time points were 0, 0.25, 0.5, 1, 2, 4, 6, 8 and 24 h. The samples were stored in a refrigerator at −20° C.
The plasma sample was 40 μL, 160 μL of ice-cold acetonitrile containing internal standard was added, vortexed for 3 minutes, and centrifuged at 11,000 rpm for 5 minutes. 100 μL of the supernatant was taken and added to 100 μL of water, 5 μL of the sample was taken and injected into LC/MS/MS for analysis (see the table below for the results).
PK Results for Single Oral Administration (PO) of 10 mg/kg of Compounds to Mice

IC50 [1]: 0.053 µM
IC50 [2]: 1.61 µM
half-life at 1 µM [3]: 20 min
AUC(0-t) [4]: 973 ng·h/mL
Cmax [4]: 266 ng/mL
half-life [4]: 78 min
SMILES: Cn1ncc(-c2ccc3c(=O)[nH]nc(CN)c3c2)c1-c1c(F)c(Cl)cc(OC2CC2)c1C#N [MRTX-1979, reference compound]
